In US6706663B2, “Herbicidal 3-heterocyclic substituted benzisothiazole and benzisoxazole compounds” (Wyeth, priority 2000, dated 2004):

Experiments:
[1] = test system: CASOB (Cassia obtusifolia); assay: Preemergence herbicidal evaluation; type: in vivo, L.; conditions: preemergence, rated 4-5 weeks after treatment
How it was run: (§1)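 Each species was sown separately in potting soil over roughly one inch of soil, and the surface sprayed with compound dissolved in aqueous acetone. Assessment used a 0–9 visual scale against a control after four to five weeks.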

[2] = test system: AMBEL (Ambrosia artemisifolia); assay: Preemergence herbicidal evaluation; type: in vivo, L.; conditions: preemergence, rated 4-5 weeks after treatment
How it was run: as §1

[3] = test system: CHEAL (Chenopodium album); assay: Preemergence herbicidal evaluation; type: in vivo, L.; conditions: preemergence, rated 4-5 weeks after treatment
How it was run: as §1

SETVI (Setaria viridis) [4] = assay: Postemergence herbicidal evaluation; type: in vivo, (L.) Beau
How it was run: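 Ratings use a 0-9 visual scale covering stand, vigor, malformation, size, chlorosis and appearance versus a control, scored 4-5 weeks post-spray. Roughly two-week-old seedlings received about 0.0040-1.000 kg/ha active, applied in 50/50 acetone/water with 0.5% TWEEN 20. Multiple tests per compound were averaged.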

[5] = test system: SAGPY (Sagittaria pygmaea); assay: Flooded paddy, preemergence weed control; type: in vivo, L.; conditions: rated 3-4 weeks after treatment, 0-9 rating scale
How it was run: (§2)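 Preemergence, flooded: propagules planted at 0.5 cm depth in silt loam, water level maintained at 1.5 to 3 cm over soil, containers kept on greenhouse benches. Activity scored 0-9 by eye relative to a control plant.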

[6] = test system: ABUTH (Abutilon theophrasti); assay: Postemergence herbicidal evaluation; type: in vivo, Medic.
How it was run: (§3)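 Seedlings grown for about two weeks were sprayed postemergence and then kept under standard greenhouse care. Injury was rated visually 4–5 weeks after treatment on a 0–9 scale against untreated controls, and ratings from repeat tests were averaged.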

[7] = test system: TRZAWR (Wheat, Winter, cv Riband); assay: Postemergence herbicidal evaluation; type: in vivo, Triticum aestivum
How it was run: as §3

GALAP (Galium aparine) [8] = assay: Postemergence herbicidal evaluation; type: in vivo
How it was run: as §3

[9] = test system: IPOHE (Ipomoea hederacea); assay: Postemergence herbicidal evaluation; type: in vivo, (L.) Jacq.
How it was run: as §3

[10] = test system: CYPSE (Cyperus serotinus); assay: Flooded paddy, preemergence weed control; type: in vivo, Rottb.; conditions: rated 3-4 weeks after treatment, 0-9 rating scale
How it was run: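 Herbicidal effect was scored visually on a 0–9 scale against an untreated control 3–4 weeks after treatment. Compounds were applied preemergence as 50/50 v/v aqueous/acetone mixtures into flood water (1.5–3 cm deep over silt loam), at roughly 0.0080 to 0.1250 kg/ha active ingredient.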

SETVI (Setaria viridis) [11] = assay: Preemergence herbicidal evaluation; type: in vivo, (L.) Beau; conditions: preemergence, rated 4-5 weeks after treatment
How it was run: as §1

[12] = test system: ECHCG (Echinochloa crus-galli); assay: Preemergence herbicidal evaluation; type: in vivo, (L.) Beau; conditions: preemergence, rated 4-5 weeks after treatment
How it was run: as §1

[13] = test system: CASOB (Cassia obtusifolia); assay: Postemergence herbicidal evaluation; type: in vivo, L.
How it was run: as §3

[14] = test system: AMBEL (Ambrosia artemisifolia); assay: Postemergence herbicidal evaluation; type: in vivo, L.
How it was run: as §3

[15] = test system: CHEAL (Chenopodium album); assay: Postemergence herbicidal evaluation; type: in vivo, L.
How it was run: as §3

CYPIR (Cyperus iria) = assay: Flooded paddy, preemergence weed control; type: in vivo; conditions: rated 3-4 weeks after treatment, 0-9 rating scale
How it was run: as §2

[16] = test system: MOOVA (Monochoria vaginalis); assay: Flooded paddy, preemergence weed control; type: in vivo, Presl.; conditions: rated 3-4 weeks after treatment, 0-9 rating scale
How it was run: as §2

ORYSAT (Rice, Tebonnet) [17] = assay: Preemergence herbicidal evaluation; type: in vivo, Oryza sativa, (L.) Tebonnet; conditions: preemergence, rated 4-5 weeks after treatment
ORYSAT (Rice, Tebonnet) [18] = assay: Postemergence herbicidal evaluation; type: in vivo, Oryza sativa, (L.) Tebonnet
How it was run: as §3

GALAP (Galium aparine) [19] = assay: Preemergence herbicidal evaluation; type: in vivo; conditions: preemergence, rated 4-5 weeks after treatment
How it was run: as §1

`Cn1c(C(F)(F)F)cc(=O)n(-c2ccc3snc(-c4cccs4)c3c2)c1=O` [Compound 3, 1-methyl-3-[3-(2-thienyl)-1,2-benzisothiazol-5-yl]-6-(trifluoromethyl)uracil] was tested, and the “CASOB preemergence herbicidal rating” value ([1]; Rate 0.0620 kg/ha) was 4.0, the “CASOB preemergence herbicidal rating” value ([1]; Rate 0.1250 kg/ha) was 4.5 and the “CASOB preemergence herbicidal rating” value ([1]; Rate 0.2500 kg/ha) was 5.5. For the same molecule, the “AMBEL preemergence herbicidal rating” value ([2]; Rate 0.0620 kg/ha) was 8.0, the “AMBEL preemergence herbicidal rating” value ([2]; Rate 0.1250 kg/ha) was 9.0 and the “AMBEL preemergence herbicidal rating” value ([2]; Rate 0.2500 kg/ha) was 9.0. For the same molecule, the “CHEAL preemergence herbicidal rating” value ([3]; Rate 0.0620 kg/ha) was 9.0, the “CHEAL preemergence herbicidal rating” value ([3]; Rate 0.1250 kg/ha) was 9.0 and the “CHEAL preemergence herbicidal rating” value ([3]; Rate 0.2500 kg/ha) was 9.0. For the same molecule, the “Postemergence herbicidal rating, SETVI” value (SETVI (Setaria viridis) [4]; rate 0.0320 kg/ha) was 3.0, the “Postemergence herbicidal rating, SETVI” value (SETVI (Setaria viridis) [4]; rate 0.0620 kg/ha) was 9.0 and the “Postemergence herbicidal rating, SETVI” value (SETVI (Setaria viridis) [4]; rate 0.1250 kg/ha) was 9.0. The “herbicidal rating, SAGPY” value ([5]; rate 0.0080 kg/ha) was 0.0, the “herbicidal rating, SAGPY” value ([5]; rate 0.0320 kg/ha) was 1.0 and the “herbicidal rating, SAGPY” value ([5]; rate 0.1250 kg/ha) was 5.5. The “Postemergence herbicidal rating, ABUTH” value ([6]; rate 0.0320 kg/ha) was 9.0, the “Postemergence herbicidal rating, ABUTH” value ([6]; rate 0.0620 kg/ha) was 9.0 and the “Postemergence herbicidal rating, ABUTH” value ([6]; rate 0.1250 kg/ha) was 9.0. The “Postemergence herbicidal rating, TRZAWR” value ([7]; rate 0.0320 kg/ha) was 2.5, the “Postemergence herbicidal rating, TRZAWR” value ([7]; rate 0.0620 kg/ha) was 4.5 and the “Postemergence herbicidal rating, TRZAWR” value ([7]; rate 0.1250 kg/ha) was 5.0. For the same molecule, the “Postemergence herbicidal rating, GALAP” value (GALAP (Galium aparine) [8]; rate 0.0320 kg/ha) was 5.0, the “Postemergence herbicidal rating, GALAP” value (GALAP (Galium aparine) [8]; rate 0.0620 kg/ha) was 4.0 and the “Postemergence herbicidal rating, GALAP” value (GALAP (Galium aparine) [8]; rate 0.1250 kg/ha) was 6.0. The “Postemergence herbicidal rating, IPOHE” value ([9]; rate 0.0320 kg/ha) was 9.0, the “Postemergence herbicidal rating, IPOHE” value ([9]; rate 0.0620 kg/ha) was 9.0 and the “Postemergence herbicidal rating, IPOHE” value ([9]; rate 0.1250 kg/ha) was 9.0. The “herbicidal rating, CYPSE” value ([10]; rate 0.0080 kg/ha) was 0.0, the “herbicidal rating, CYPSE” value ([10]; rate 0.0320 kg/ha) was 6.5 and the “herbicidal rating, CYPSE” value ([10]; rate 0.1250 kg/ha) was 6.5. The “SETVI preemergence herbicidal rating” value (SETVI (Setaria viridis) [11]; Rate 0.0620 kg/ha) was 9.0, the “SETVI preemergence herbicidal rating” value (SETVI (Setaria viridis) [11]; Rate 0.1250 kg/ha) was 8.5 and the “SETVI preemergence herbicidal rating” value (SETVI (Setaria viridis) [11]; Rate 0.2500 kg/ha) was 9.0. The “ECHCG preemergence herbicidal rating” value ([12]; Rate 0.0620 kg/ha) was 7.5, the “ECHCG preemergence herbicidal rating” value ([12]; Rate 0.1250 kg/ha) was 7.0 and the “ECHCG preemergence herbicidal rating” value ([12]; Rate 0.2500 kg/ha) was 9.0. The “Postemergence herbicidal rating, CASOB” value ([13]; rate 0.0320 kg/ha) was 4.0, the “Postemergence herbicidal rating, CASOB” value ([13]; rate 0.0620 kg/ha) was 5.0 and the “Postemergence herbicidal rating, CASOB” value ([13]; rate 0.1250 kg/ha) was 9.0. The “Postemergence herbicidal rating, AMBEL” value ([14]; rate 0.0320 kg/ha) was 9.0, the “Postemergence herbicidal rating, AMBEL” value ([14]; rate 0.0620 kg/ha) was 9.0 and the “Postemergence herbicidal rating, AMBEL” value ([14]; rate 0.1250 kg/ha) was 9.0. The “Postemergence herbicidal rating, CHEAL” value ([15]; rate 0.0320 kg/ha) was 9.0, the “Postemergence herbicidal rating, CHEAL” value ([15]; rate 0.0620 kg/ha) was 9.0 and the “Postemergence herbicidal rating, CHEAL” value ([15]; rate 0.1250 kg/ha) was 9.0. The “herbicidal rating, CYPIR” value (CYPIR (Cyperus iria); rate 0.0080 kg/ha) was 0.0, the “herbicidal rating, CYPIR” value (CYPIR (Cyperus iria); rate 0.0320 kg/ha) was 8.5 and the “herbicidal rating, CYPIR” value (CYPIR (Cyperus iria); rate 0.1250 kg/ha) was 9.0. The “herbicidal rating, MOOVA” value ([16]; rate 0.0080 kg/ha) was 9.0, the “herbicidal rating, MOOVA” value ([16]; rate 0.0320 kg/ha) was 9.0 and the “herbicidal rating, MOOVA” value ([16]; rate 0.1250 kg/ha) was 9.0. The “ORYSAT preemergence herbicidal rating” value (ORYSAT (Rice, Tebonnet) [17]; Rate 0.0620 kg/ha) was 6.0, the “ORYSAT preemergence herbicidal rating” value (ORYSAT (Rice, Tebonnet) [17]; Rate 0.1250 kg/ha) was 5.0 and the “ORYSAT preemergence herbicidal rating” value (ORYSAT (Rice, Tebonnet) [17]; Rate 0.2500 kg/ha) was 5.0. For the same molecule, the “Postemergence herbicidal rating, ORYSAT” value (ORYSAT (Rice, Tebonnet) [18]; rate 0.0320 kg/ha) was 3.0, the “Postemergence herbicidal rating, ORYSAT” value (ORYSAT (Rice, Tebonnet) [18]; rate 0.0620 kg/ha) was 4.0 and the “Postemergence herbicidal rating, ORYSAT” value (ORYSAT (Rice, Tebonnet) [18]; rate 0.1250 kg/ha) was 4.5. The “GALAP preemergence herbicidal rating” value (GALAP (Galium aparine) [19]; Rate 0.0620 kg/ha) was 9.0, the “GALAP preemergence herbicidal rating” value (GALAP (Galium aparine) [19]; Rate 0.1250 kg/ha) was 9.0 and the “GALAP preemergence herbicidal rating” value (GALAP (Galium aparine) [19]; Rate 0.2500 kg/ha) was 9.0.
